Assay results as given in patent US20240132484A1, “BROAD SPECTRUM ANTIVIRAL COMPOUNDS TARGETING THE SKI COMPLEX” (priority 2020, published 2024).
Several values for one entry are separate records, joined by “and”; a condition that tells them apart may be missing. Equal entries are not always repeated. Where two headings read alike, the source gives them in different places.

Experiments:
SARS2 = assay type: cell-based, SARS-CoV-2; details: for Percentage Infection Relative to Appropriate DMSO Control with Avg Background Subtraction: single well

CCN(CC)CCN(Cc1ccc(C)o1)Cc1cccs1 [SILCS24]
Infection Data, Average, Mean (SARS2; Average of Exp 1-3, n 9, 1 uM): 68.53%
Infection Data, Average, Mean (SARS2; Average of Exp 1-3, n 9, 5 uM): 71.54%
Infection Data, Average, Mean (SARS2; Average of Exp 1-3, n 9, 10 uM): 70.96%
Infection Data, Average, Mean (SARS2; Average of Exp 1-3, n 9, 25 uM): 35.04%
Infection Data, Average, Mean (SARS2; Average of Exp 1-3, n 9, 50 uM): 19.26%
Percentage Infection Relative to Appropriate DMSO Control with Avg Background Subtraction (SARS2; Exp 1 (SMW475), 1 uM): 124.65% and 102.70% and 66.42%
Percentage Infection Relative to Appropriate DMSO Control with Avg Background Subtraction (SARS2; Exp 1 (SMW475), 5 uM): 90.16% and 99.17% and 50.26%
Percentage Infection Relative to Appropriate DMSO Control with Avg Background Subtraction (SARS2; Exp 1 (SMW475), 10 uM): 93.85% and 91.06% and 50.31%
Percentage Infection Relative to Appropriate DMSO Control with Avg Background Subtraction (SARS2; Exp 1 (SMW475), 50 uM): 20.92% and 16.99% and 16.36%
Percentage Infection Relative to Appropriate DMSO Control with Avg Background Subtraction (SARS2; Exp 2 (SMW477), 1 uM): 88.56% and 86.90% and 93.54%
Percentage Infection Relative to Appropriate DMSO Control with Avg Background Subtraction (SARS2; Exp 2 (SMW477), 5 uM): 78.38% and 98.62% and 72.17%
Percentage Infection Relative to Appropriate DMSO Control with Avg Background Subtraction (SARS2; Exp 2 (SMW477), 10 uM): 54.07% and 57.64% and 38.68%
Percentage Infection Relative to Appropriate DMSO Control with Avg Background Subtraction (SARS2; Exp 2 (SMW477), 50 uM): 18.59% and 11.16% and 9.24%
Percentage Infection Relative to Appropriate DMSO Control with Avg Background Subtraction (SARS2; Exp 3 (SMW478), 10 uM): 97.16% and 81.93% and 73.95%
Percentage Inhibition Average 1 μM (SARS2; SARS2, 1 μM): 31.47%
Screening data (Relative infection to DMSO controls) Average 1 μM (SARS2; SARS2, 1 μM, 100=DMSO control): 68.53
Percentage Inhibition Average 5 μM (SARS2; SARS2, 5 μM): 28.46%
Screening data (Relative infection to DMSO controls) Average 5 μM (SARS2; SARS2, 5 μM, 100=DMSO control): 71.54
Percentage Inhibition Average 10 μM (SARS2; SARS2, 10 μM): 29.04%
Screening data (Relative infection to DMSO controls) Average 10 μM (SARS2; SARS2, 10 μM, 100=DMSO control): 70.96
Percentage Inhibition Average 25 μM (SARS2; SARS2, 25 μM): 64.96%
Screening data (Relative infection to DMSO controls) Average 25 μM (SARS2; SARS2, 25 μM, 100=DMSO control): 35.04
Percentage Inhibition Average 50 μM (SARS2; SARS2, 50 μM): 80.74%
Screening data (Relative infection to DMSO controls) Average 50 μM (SARS2; SARS2, 50 μM, 100=DMSO control): 19.26
Average (relative infection to DMSO over the 5 tested concentrations) (SARS2; SARS2, average over 1 to 50 uM, 100=DMSO control): 53.07
Relative cell count to DMSO controls, Average 1 μM (cells (nuclei count); 1 μM, toxicity data, 100=DMSO control): 133.02
Relative cell count to DMSO controls, Average 5 μM (cells (nuclei count); 5 μM, toxicity data, 100=DMSO control): 124
Relative cell count to DMSO controls, Average 10 μM (cells (nuclei count); 10 μM, toxicity data, 100=DMSO control): 120.3
Relative cell count to DMSO controls, Average 25 μM (cells (nuclei count); 25 μM, toxicity data, 100=DMSO control): 96.21
Relative cell count to DMSO controls, Average 50 μM (cells (nuclei count); 50 μM, toxicity data, 100=DMSO control): 76.48
Toxicity Data, Average, Mean (cells (nuclei count); Average of Exp 1-3, n 9, 1 uM): 133.02%
Toxicity Data, Average, Mean (cells (nuclei count); Average of Exp 1-3, n 9, 5 uM): 124.00%
Toxicity Data, Average, Mean (cells (nuclei count); Average of Exp 1-3, n 9, 10 uM): 120.30%
Toxicity Data, Average, Mean (cells (nuclei count); Average of Exp 1-3, n 9, 25 uM): 96.21%
Toxicity Data, Average, Mean (cells (nuclei count); Average of Exp 1-3, n 9, 50 uM): 76.48%
Relative cell count to DMSO controls, Average (for correlation analysis) (cells (nuclei count); average value over the 5 tested concentrations (1 to 50 uM)): 110.00
